The CheMixHub viscosity set
Several values for one entry are separate records, joined by “and”; a condition that tells them apart may be missing. Equal values may be shown once. ± gives the uncertainty stated by the source.

Assays:
[1] = xn = mol fraction of the nth substance listed

CCS(=O)CC
101 kPa
Settings	viscosity [mPa·s]
298.15 K	2.32 ± 0.05
303.15 K	2.1 ± 0.04
308.15 K	1.88 ± 0.04
313.15 K	1.74 ± 0.04
318.15 K	1.59 ± 0.03
323.15 K	1.31 ± 0.03

CC1CCCCC1
Settings	viscosity
293.15 K, 100 kPa	0.736 ± 0.017 mPa·s (2×) and 0.73 ± 0.09 mPa·s
293.15 K, 101.2 kPa	0.7298 ± 0.033 mPa·s
298.15 K, 100 kPa	0.69 ± 0.08 mPa·s
298.15 K, 101 kPa	0.68 ± 0.006 mPa·s
298.15 K, 101.2 kPa	0.6819 ± 0.031 mPa·s
303.15 K, 100 kPa	0.65 ± 0.08 mPa·s and 0.639 ± 0.014 mPa·s
303.15 K, 101 kPa	0.6416 ± 0.0044 mPa·s
303.15 K, 101.2 kPa	0.6389 ± 0.029 mPa·s
303.15 K, 101.3 kPa	0.6407 ± 0.0044 mPa·s
303.15 K, 101.33 kPa	0.639 ± 0.0085 mPa·s
308.15 K, 100 kPa	0.61 ± 0.07 mPa·s
313.15 K, 100 kPa	0.568 ± 0.013 mPa·s
313.15 K, 101.2 kPa	0.5641 ± 0.025 mPa·s
318.15 K, 100 kPa	0.54 ± 0.07 mPa·s
318.15 K, 101.2 kPa	0.5314 ± 0.024 mPa·s
323.15 K, 100 kPa	0.51 ± 0.06 mPa·s and 0.501 ± 0.011 mPa·s

CCCCCl
101 kPa
Settings	viscosity [mPa·s]
298.15 K	0.428
318.15 K	0.356
323.15 K	0.34

CNS(C)(=O)=O
Settings	viscosity [mPa·s]
303.15 K, 101.33 kPa	8.242 ± 0.21

CC(C)CC1CCCCC1
102 kPa
Settings	viscosity [mPa·s]
293.15 K	1.17 ± 0.02
303.15 K	1 ± 0.02
313.15 K	0.871 ± 0.021
323.15 K	0.765 ± 0.021

OC1CCCCCCC1
100 kPa
Settings	viscosity [mPa·s]
293.15 K	210 ± 10
298.15 K	143 ± 5.6
303.15 K	102.5 ± 3.8
308.15 K	72 ± 3.2
313.15 K	55 ± 3.1
318.15 K	40 ± 3.1

COC(=O)c1ccccc1O
Settings	viscosity [mPa·s]
303.15 K, 101 kPa	2.44 ± 0.028

CCCCC[P+](CC)(CC)CC.O=S(=O)([N-]S(=O)(=O)C(F)(F)F)C(F)(F)F
101.3 kPa
Settings	viscosity [mPa·s]
298.15 K	87.5 ± 18
303.15 K	68.8 ± 14
308.15 K	54.9 ± 11
318.15 K	36.6 ± 7.3
323.15 K	30.5 ± 6.1

CCCC[N+]1(C)CCCC1.N#C[S-]
101 kPa
Settings	viscosity [mPa·s]
298.15 K	109.5 ± 23
308.15 K	70.36 ± 6.5
318.15 K	47.79 ± 3

CCNC(C)=O
Settings	viscosity [mPa·s]
298.16 K, 101 kPa	5.89 ± 0.05

Cc1ccccc1[N+](=O)[O-] + CN1CCC[C@H]1c1cccnc1
viscosity [mPa·s], [1], 101.33 kPa
Settings	x2 = 0.1058	x2 = 0.2027	x2 = 0.2928	x2 = 0.4027	x2 = 0.4939	x2 = 0.5968	x2 = 0.6894	x2 = 0.7864	x2 = 0.8909
298.15 K	2.229 ± 0.022	2.424 ± 0.024	2.583 ± 0.026	2.775 ± 0.028	3.008 ± 0.03	3.117 ± 0.031	3.335 ± 0.033	3.47 ± 0.035	3.697 ± 0.037
323.15 K	1.405 ± 0.014	1.481 ± 0.015	1.557 ± 0.016	1.625 ± 0.016	1.7 ± 0.017	1.764 ± 0.018	1.909 ± 0.019	1.919 ± 0.019	2.002 ± 0.02

[Li+].[O-][Cl+3]([O-])([O-])[O-] + CC#N
viscosity [mPa·s], [1], 101 kPa
Settings	x1 = 0.0128	x1 = 0.0255	x1 = 0.0301	x1 = 0.536
296.15 K	0.444 ± 0.012	–	–	0.66 ± 0.017
297.15 K	–	0.53 ± 0.014	–	–
313.15 K	0.399 ± 0.011	0.473 ± 0.013	0.958 ± 0.025	0.628 ± 0.017

CCOC(=O)c1ccccc1 + C1CCOC1
viscosity [mPa·s], [1], 101 kPa
Settings	x1 = 0.0601	x1 = 0.1259	x1 = 0.198	x1 = 0.2773	x1 = 0.3628	x1 = 0.4611	x1 = 0.5719	x1 = 0.6953	x1 = 0.8372
303.15 K	0.488 ± 0.017	0.545 ± 0.017	0.617 ± 0.018	0.706 ± 0.018	0.804 ± 0.019	0.937 ± 0.019	1.083 ± 0.02	1.257 ± 0.021	1.474 ± 0.023
308.15 K	0.473 ± 0.017	0.524 ± 0.017	0.595 ± 0.018	0.676 ± 0.018	0.767 ± 0.018	0.885 ± 0.019	1.019 ± 0.02	1.168 ± 0.021	1.36 ± 0.022
313.15 K	0.436 ± 0.017	0.49 ± 0.017	0.553 ± 0.018	0.626 ± 0.018	0.706 ± 0.018	0.809 ± 0.019	0.928 ± 0.019	1.063 ± 0.02	1.229 ± 0.021

Cc1ccccc1[N+](=O)[O-] + CO
[1], 298.15 K, 101 kPa
Settings	viscosity [mPa·s]
x1 = 0.0021	0.5422 ± 0.0056
x1 = 0.0086	0.55 ± 0.0057
x1 = 0.0163	0.5579 ± 0.0058
x1 = 0.0287	0.5756 ± 0.0059
x1 = 0.0599	0.621 ± 0.0063
x1 = 0.0842	0.6536 ± 0.0066
x1 = 0.148	0.7466 ± 0.0075
x1 = 0.1606	0.7653 ± 0.0077
x1 = 0.2493	0.894 ± 0.009
x1 = 0.2659	0.919 ± 0.009
x1 = 0.3726	1.075 ± 0.011
x1 = 0.4073	1.119 ± 0.011
x1 = 0.4479	1.172 ± 0.012
x1 = 0.5681	1.334 ± 0.013
x1 = 0.6575	1.457 ± 0.014
x1 = 0.7936	1.656 ± 0.016
x1 = 0.8543	1.76 ± 0.017
x1 = 0.9606	1.982 ± 0.02

CCC(C)CO (centres undefined) + COc1ccccc1
viscosity [mPa·s], [1], 101.33 kPa
Settings	x2 = 0.1005	x2 = 0.2004	x2 = 0.3003	x2 = 0.4012	x2 = 0.5001	x2 = 0.6005	x2 = 0.6996	x2 = 0.8001	x2 = 0.9003
303.15 K	2.761 ± 0.036	2.126 ± 0.028	1.665 ± 0.021	1.347 ± 0.017	1.149 ± 0.015	1.032 ± 0.013	0.968 ± 0.012	0.932 ± 0.011	0.912 ± 0.011
313.15 K	2.026 ± 0.027	1.601 ± 0.021	1.296 ± 0.017	1.084 ± 0.014	0.952 ± 0.012	0.868 ± 0.011	0.824 ± 0.01	0.803 ± 0.01	0.794 ± 0.01
323.15 K	1.552 ± 0.021	1.246 ± 0.016	1.022 ± 0.013	0.872 ± 0.011	0.784 ± 0.01	0.739 ± 0.009	0.718 ± 0.009	0.707 ± 0.009	0.698 ± 0.009

CC1CCCCC1 + CCCCCCCCCCCC
viscosity [mPa·s], [1], 101 kPa
Settings	x1 = 0.1004	x1 = 0.2017	x1 = 0.2968	x1 = 0.406	x1 = 0.5059	x1 = 0.6011	x1 = 0.6993	x1 = 0.7989	x1 = 0.898
298.15 K	1.303 ± 0.022	–	–	1.084 ± 0.018	1.014 ± 0.017	0.948 ± 0.016	0.88 ± 0.015	0.811 ± 0.014	0.744 ± 0.013
303.15 K	1.186 ± 0.02	1.124 ± 0.019	1.067 ± 0.018	1.004 ± 0.017	0.94 ± 0.016	–	0.821 ± 0.014	0.756 ± 0.013	0.694 ± 0.012
308.15 K	1.096 ± 0.018	1.037 ± 0.018	0.981 ± 0.017	0.919 ± 0.016	0.862 ± 0.015	0.809 ± 0.014	0.755 ± 0.013	0.701 ± 0.012	0.647 ± 0.012

Cc1ccccc1[N+](=O)[O-] + Cc1ccccc1C
[1], 308.15 K, 101.33 kPa
Settings	viscosity [mPa·s]
x2 = 0.1023	1.548 ± 0.01
x2 = 0.2014	1.392 ± 0.009
x2 = 0.3006	1.262 ± 0.008
x2 = 0.4018	1.143 ± 0.007
x2 = 0.5041	1.027 ± 0.007
x2 = 0.6102	0.928 ± 0.006
x2 = 0.7028	0.85 ± 0.006
x2 = 0.8056	0.773 ± 0.005
x2 = 0.9008	0.709 ± 0.005

CCS(=O)CC + CCC#N
viscosity [mPa·s], [1], 101 kPa
Settings	x1 = 0.0998	x1 = 0.2002	x1 = 0.2962	x1 = 0.3999	x1 = 0.4953	x1 = 0.6017	x1 = 0.6937	x1 = 0.7999	x1 = 0.8998
298.15 K	0.53 ± 0.01	0.63 ± 0.01	0.73 ± 0.02	0.89 ± 0.02	1.05 ± 0.02	1.26 ± 0.03	1.45 ± 0.03	1.74 ± 0.04	1.98 ± 0.04
303.15 K	0.49 ± 0.01	0.59 ± 0.01	0.69 ± 0.02	0.83 ± 0.02	0.96 ± 0.02	1.15 ± 0.02	1.35 ± 0.03	1.56 ± 0.03	1.84 ± 0.04
308.15 K	0.46 ± 0.01	0.55 ± 0.01	0.64 ± 0.01	0.78 ± 0.02	0.89 ± 0.02	1.06 ± 0.02	1.25 ± 0.03	1.41 ± 0.03	1.68 ± 0.04
313.15 K	0.44 ± 0.01	0.54 ± 0.01	0.61 ± 0.01	0.74 ± 0.02	0.85 ± 0.02	0.99 ± 0.02	1.14 ± 0.02	1.32 ± 0.03	1.52 ± 0.03
318.15 K	0.42 ± 0.01	0.5 ± 0.01	0.59 ± 0.01	0.69 ± 0.02	0.78 ± 0.02	0.92 ± 0.02	–	1.21 ± 0.03	1.39 ± 0.03
323.15 K	0.36 ± 0.01	0.43 ± 0.01	0.51 ± 0.01	0.59 ± 0.01	0.67 ± 0.02	0.79 ± 0.02	0.91 ± 0.02	1.02 ± 0.02	1.17 ± 0.03
